From patent US5691155A, “Nucleotide sequences encoding the murine β3-adrenergic receptor and their applications” (priority 1991, dated 1997)
Entries after “also recorded” stand apart in the source; their conditions may differ. Like-named read-outs stand apart in the source and are kept apart here.

Tests used:
[1] = biological target: T1, murine RA-β3 (Mus musculus, UniProt P25962); assay: cAMP accumulation in CHO-Muβ3 cells (agonists); assay type: cell-based; settings: for maximum stimulation of cAMP accumulation: % of that for (-)-isoproterenol; for A.I. (% IPR), intrinsic activity: % of maximum effect of (-)-isoproterenol; for activation of receptor by β1 and β2 antagonists (in words): murine RA-β3; for agonist type (in words): murine RA-β3, CHO-Muβ3
T1 construct: expressed in transfected cells
Experimental: (§1) a. Test for cAMP Accumulation
(§2) preconfluent cells such as those described in Example 5 (5×10^5) are incubated at 37° C. for 20 minutes in 0.5 ml of HANKS buffer containing 20 mM HEPES (pH 7.4), 1 mM ascorbic acid, 1 mM isobutylmethylxanthine and various concentrations of agonist.
(§3) After boiling for 5 min and centrifugation (4000 r.p.m., 10 min, 4° C.), the quantity of cAMP produced is determined using the Amersham cAMP kit.
To determine the pharmacological profile of murine RA-β3, the coding region of its gene was inserted into an expression vector like that described in Example 5.
(§4) The Kact values correspond to the agonist concentration giving 50% of the maximum stimulation.

[2] = biological target: T2, human RA-β3 (Homo sapiens, UniProt P13945); assay: cAMP accumulation in CHO-Huβ3 cells (agonists); assay type: cell-based; settings: for activation of receptor by β1 and β2 antagonists (in words): human RA-β3; for EC50: CHO-Huβ3, agonist concentration giving 50% of the maximum stimulation, read-out: Kact
T2 construct: expressed in transfected cells; host or cells: CHO (Chinese Hamster Ovary), CHO-Huβ3
Experimental: In order to be able to directly compare the properties of the murine and human β3-AR receptors, it was decided to express the mouse β3 gene in the CHO (Chinese Hamster Ovary) cell line which has already been used to analyse the human β3-AR receptor (see French Patent Application No. 89 00918).
as §1, §2, §3, §4

[3] = biological target: T2, human RA-β3; assay: Inhibition of isoproterenol-induced cAMP accumulation in CHO-Huβ3 cells (antagonists); assay type: cell-based
[4] = biological target: T1, murine RA-β3; assay: Inhibition of (-)-isoproterenol-induced cAMP accumulation in CHO-Muβ3 cells (antagonists); assay type: cell-based; settings: for concentration required to inhibit isoproterenol-induced cAMP accumulation (in words): CHO-Muβ3, 5 nM (-)-isoproterenol; for inhibition of isoproterenol-induced accumulation of cAMP (in words): murine RA-β3
[5] = system: RA-β3; settings: cited from earlier work
[6] = biological target: T1, murine RA-β3; assay: Binding of [^125 I]ICYP to saturation, intact CHO-Muβ3 cells; settings: saturation/Scatchard, mean±SEM, n=3, read-out: dissociation constant
Experimental: b. Test for the Binding of ICYP
preconfluent cells such as those described in Example 5 (10^5) are incubated for 1 hour at 37° C. in a HANKS buffer containing 20 mM HEPES (pH 7.4), 1 mM ascorbic acid, 2 μM desipramine, 0.05% bovine serum albumin and 70-7000 pM (-)-[^125 I]ICYP (2000 Ci/mmol, Amersham).
The incubations are stopped by dilution in cold PBS buffer and the bound ligand is separated from free [^125 I]ICYP by filtration (Whatman GF/C filters impregnated with 0.3% polyethyleneimine).
The filters are washed 3 times with cold PBS buffer and the radioactivity is measured.

[7] = system: obese rat cells; settings: cited from earlier work
[8] = CHO-Muβ3, agonist concentration giving 50% of the maximum stimulation, read-out: Kact

T1 sequence (P25962 1-388): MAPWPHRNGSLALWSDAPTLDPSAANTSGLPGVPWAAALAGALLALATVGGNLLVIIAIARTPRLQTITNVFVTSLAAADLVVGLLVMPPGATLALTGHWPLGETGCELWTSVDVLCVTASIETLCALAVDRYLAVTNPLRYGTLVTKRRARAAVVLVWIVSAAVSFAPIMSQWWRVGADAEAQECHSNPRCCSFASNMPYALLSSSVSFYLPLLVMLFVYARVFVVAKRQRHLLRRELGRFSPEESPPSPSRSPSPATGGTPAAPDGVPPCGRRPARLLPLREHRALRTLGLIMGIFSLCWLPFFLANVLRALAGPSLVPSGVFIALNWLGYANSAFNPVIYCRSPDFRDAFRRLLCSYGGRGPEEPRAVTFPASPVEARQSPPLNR
T2 sequence (P13945 1-402): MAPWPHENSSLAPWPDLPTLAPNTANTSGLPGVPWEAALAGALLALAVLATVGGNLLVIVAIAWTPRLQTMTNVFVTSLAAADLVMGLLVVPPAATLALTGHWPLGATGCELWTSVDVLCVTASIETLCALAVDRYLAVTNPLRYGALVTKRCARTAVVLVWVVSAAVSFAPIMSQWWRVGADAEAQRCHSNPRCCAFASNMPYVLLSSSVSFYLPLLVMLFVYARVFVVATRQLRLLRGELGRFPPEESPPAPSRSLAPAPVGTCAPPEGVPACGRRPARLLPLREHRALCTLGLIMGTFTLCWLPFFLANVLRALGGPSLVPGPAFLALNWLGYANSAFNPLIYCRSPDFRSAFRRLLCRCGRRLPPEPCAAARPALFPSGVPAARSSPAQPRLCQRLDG

SMILES: CC(C)NCC(O)COc1cccc2[nH]ccc12 (stereo not shown) [pindolol]
- maximum stimulation of cAMP accumulation ([1]; CHO-Muβ3): 36%
- A.I. (% IPR), intrinsic activity ([1]; CHO-Muβ3): 35.1 ± 3.1%
- EC50 [1, 8]: 999 ± 197 nM
- activation of receptor by β1 and β2 antagonists (in words) [1]: can be activated
- agonist type (in words) [1]: behave like partial agonists
- activation of receptor by β1 and β2 antagonists (in words) [2]: can be activated

SMILES: CC(C)NCC(O)COc1cccc2ccccc12 (stereo not shown) [Propranolol]
- inhibition of isoproterenol-induced accumulation of cAMP (in words) [3]: weak inhibitors

SMILES: Cc1ccc(OCC(O)C(C)NC(C)C)c2c1CCC2 (stereo not shown) [ICI 118551]
- inhibition of isoproterenol-induced accumulation of cAMP (in words) [3]: weak inhibitors
- Ki [4]: 4970 ± 137 nM
- concentration required to inhibit isoproterenol-induced cAMP accumulation (in words) [4]: micromolar concentrations are required; also recorded: micromolar amounts
- inhibition of isoproterenol-induced accumulation of cAMP (in words) [4]: weak inhibitors

SMILES: CNCC(O)c1ccc(O)c(O)c1 (single isomer, unassigned; (-)) [(-)-adrenalin]
- stimulation of cAMP accumulation (in words) ([1]; CHO-Muβ3): accumulation of cAMP is stimulated
- A.I. (% IPR), intrinsic activity ([1]; CHO-Muβ3): 90.6 ± 2.9%
- EC50 [1, 8]: 23 ± 0.3 nM
- EC50 [2]: 49.2 ± 5.3 nM

SMILES: CC(C)(C)NCC(O)COc1cccc2[nH]c(=O)[nH]c12 (stereo not shown) [CGP 12177A]
- maximum stimulation of cAMP accumulation ([1]; CHO-Muβ3): 77%
- A.I. (% IPR), intrinsic activity ([1]; CHO-Muβ3): 74.9 ± 7.9%
- activation of receptor by β1 and β2 antagonists (in words) [1]: can be activated
- agonist type (in words) [1]: behave like partial agonists
- lipolysis and adenylate cyclase activity (in words) [5]: stimulates lipolysis and adenylate cyclase activity
- EC50 [2]: 139 ± 44.3 nM
- activation of receptor by β1 and β2 antagonists (in words) [2]: can be activated

SMILES: Cn1cc(C(F)(F)F)nc1-c1ccc(OCC(O)CNCCOc2ccc(O)c(C(N)=O)c2)cc1 (stereo not shown) [CGP 20712A]
- inhibition of isoproterenol-induced accumulation of cAMP (in words) [3]: weak inhibitors
- Ki [4]: 6420 ± 584 nM
- concentration required to inhibit isoproterenol-induced cAMP accumulation (in words) [4]: micromolar concentrations are required; also recorded: micromolar amounts
- inhibition of isoproterenol-induced accumulation of cAMP (in words) [4]: weak inhibitors

SMILES: C=CCOc1ccccc1OCC(O)CNC(C)C (stereo not shown) [oxprenolol]
- maximum stimulation of cAMP accumulation ([1]; CHO-Muβ3): 45%
- A.I. (% IPR), intrinsic activity ([1]; CHO-Muβ3): 43.8 ± 6.1%
- EC50 [1, 8]: 535 ± 79.3 nM
- activation of receptor by β1 and β2 antagonists (in words) [1]: can be activated
- agonist type (in words) [1]: behave like partial agonists
- EC50 [2]: 76.6 ± 12.6 nM
- activation of receptor by β1 and β2 antagonists (in words) [2]: can be activated

SMILES: CC(C)(C)NC[C@H](O)COc1cccc2[nH]c(C#N)c([125I])c12 [ICYP, [^125 I]iodocyanopindolol]
- Kd [6]: 0.88 ± 0.088 nM

SMILES: CC(C)NCC(O)c1ccc(O)c(O)c1 (single isomer, unassigned; (-)) [(-)-isoproterenol]
- maximum concentration of cAMP induced by isoproterenol [1]: 500 pmol per million cells

SMILES: C[C@H](Cc1ccc(OCC(=O)O)cc1)NC[C@H](O)c1cccc(Cl)c1 (relative stereo) [BRL 37344]
- EC50 [1]: 0.4 ± 0.1 nM
- stimulation of cAMP accumulation (in words) ([1]; CHO-Muβ3): potent agonist effect
- A.I. (% IPR), intrinsic activity ([1]; CHO-Muβ3): 107.4 ± 8.1%
- agonist potency in mice compared with human (in words) ([1]; murine vs human RA-β3): increased potency
- stimulation of cAMP accumulation, of lipolysis and of thermogenesis (in words) [7]: effectiveness in the stimulation of cAMP accumulation, of lipolysis and of thermogenesis

SMILES: NC[C@H](O)c1ccc(O)c(O)c1 [(-)-noradrenaline]
- EC50 [1]: 12.9 ± 4.2 nM
- stimulation of cAMP accumulation (in words) ([1]; CHO-Muβ3): accumulation of cAMP is stimulated
- Emax ([1]; read-out: A.I. (% IPR), intrinsic activity): 106 ± 5.6%
